Legend:
[1] = system: [14C] acetate incorporation in macromolecules, BT474 cells; experiment: Cell based [14C] acetate incorporation assay; details: Homo sapiens, BT-474, 3 h at 37° C., read-out: Cellular Activity (IC50 range)
Experimental: Cell Based [^14C] Acetate Incorporation Assay
In the cellular assay, ACSS2 inhibitors were screened against [^14C] acetate incorporation in macromolecules. 4×10^4 BT474 cells were plated in 96 well plates in growth media composed of DMEM & 10% FBS and incubated overnight in a 37° C., 5% CO2 incubator. The following day the cells were washed in HBSS and the assay was performed in 100 μl of HBSS. 50 μl of 4× compound in 4% DMSO was added to the cells and preincubated for 10 min. at 37° C. 50 μl of acetate solution (0.1 μCi ^14C acetate+10 μM ^12C acetate) was added to each well of the plate and incubated for 3 h in a 37° C., 5% CO2 incubator. Following incubation, cells were harvested with water on polyethylene imine (PEI) presoaked GF/C filtermat, air dried and radioactive count were recorded in Trilux micro beta Liquid Scintillation Counter (PerkinElmer).

human ACSS2 = molecular target: T1, human ACSS2 (Homo sapiens, UniProt Q9NR19); experiment: ACSS2 enzyme assay (acetyl-CoA formation, LC-MS/MS); type: biochemical; details: cytosolic fraction of BT474 cells as ACSS2 source; 100 μM acetate, CoA and ATP; 2 h at 25° C.; read-out: Enzyme Activity (IC50 range)
T1 construct: The cytosolic fraction of BT474 cells was used as a source of the ACSS2 enzyme; endogenous in cells; host or cells: BT474 cells (cytosolic fraction)
T1 sequence (Q9NR19 whole entry): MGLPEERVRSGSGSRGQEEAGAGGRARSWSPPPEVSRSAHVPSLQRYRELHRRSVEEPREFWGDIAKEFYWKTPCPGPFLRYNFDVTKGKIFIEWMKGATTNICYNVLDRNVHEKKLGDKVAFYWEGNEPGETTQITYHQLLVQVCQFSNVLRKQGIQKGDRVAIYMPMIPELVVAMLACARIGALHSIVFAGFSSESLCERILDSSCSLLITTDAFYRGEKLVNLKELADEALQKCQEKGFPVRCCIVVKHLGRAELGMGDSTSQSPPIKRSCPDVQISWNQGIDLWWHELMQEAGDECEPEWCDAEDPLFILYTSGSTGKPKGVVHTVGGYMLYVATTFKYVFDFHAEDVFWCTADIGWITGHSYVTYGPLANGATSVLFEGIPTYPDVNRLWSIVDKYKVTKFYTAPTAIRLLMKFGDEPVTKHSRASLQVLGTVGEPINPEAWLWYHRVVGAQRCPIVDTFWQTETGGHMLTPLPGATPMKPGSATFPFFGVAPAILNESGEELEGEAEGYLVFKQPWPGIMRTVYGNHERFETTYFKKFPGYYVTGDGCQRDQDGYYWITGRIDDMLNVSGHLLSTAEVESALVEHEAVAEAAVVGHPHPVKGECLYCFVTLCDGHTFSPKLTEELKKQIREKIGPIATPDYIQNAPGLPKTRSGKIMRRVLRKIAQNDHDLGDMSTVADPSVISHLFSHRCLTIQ
Experimental: Novel compounds were screened in a human ACSS2 enzyme assay. Briefly, the ACSS2 enzyme reaction was monitored by directly measuring acetyl-CoA formation. The cytosolic fraction of BT474 cells was used as a source of the ACSS2 enzyme. A short protocol for this assay is provided below.
Preparation of Cytosolic Fraction from BT474 Cells
9×10^6 cells were harvested by trypsinization followed by centrifugation. The cell pellet was washed with PBS and dissolved in 500 μl STM buffer (50 mM Tris-HCl pH7.4, 250 mM sucrose, 5 mM MgCl2 & protease-phosphatase inhibitor cocktail) and homogenized at 600-1000 rpm for 1 min. on ice followed by incubation for 30 min. with intermittent vortexing. Supernatant was collected by centrifugation at 800 g for 15 min. at 4° C. Cytosolic fraction was prepared by further centrifugation of the supernatant at 12000 g for 15 min. at 4° C. Total protein content of the cytosolic fraction was estimated & diluted to 1 mg/ml concentration in storage buffer (25 mM Tris-HCl pH7.4, 1 mM MgCl2, 1 mM DTT & 10% glycerol) and stored at −80° C. for further use.
100 ng of cytosolic fraction in buffer composed of 25 mM Tris-HCl pH7.4 1 mM MgCl2, 1 mM DTT & 0.05% Tween20 was preincubated with desired concentrations of novel compounds for 5 min. maintaining 1% DMSO. Reaction was started with addition of substrate mix (100 μM of acetate, CoA and ATP) and incubated for 2 h at 25° C. with constant shaking at 500 rpm. Post incubation the reaction was terminated by addition of 10% TCA followed by 5 fold dilution in water. The reaction mixture was centrifuged at 800 g for 10 min. at RT and acetyl-CoA detected in supernatant by LC-MS/MS (QTrap5500 ABSCIEX).

Structure (SMILES) | IC50 [1] [nM] | IC50 (human ACSS2) [nM]
CCC(O)CNC(=O)Nc1ccc2nc(-c3ccccc3)c(-c3ccccc3)c(C(=O)O)c2c1 (stereo not shown) [Example 65, 6-(3-(2-hydroxybutyl)ureido)-2,3-diphenylquino-line-4-carboxylic acid] | ≤ 10000 | < 100
CCC(O)CNC(=O)Nc1ccc2nc(C)c(-c3ccccc3)c(C(N)=O)c2c1 (stereo not shown) [Example 66, 6-(3-(2-hydroxybutyl)ureido)-2-methyl-3-phenylquinoline-4-carboxamide] | ≤ 1000 | < 100
CCC(O)CNC(=O)Nc1ccc2nc(C)c(C)c(C(N)=O)c2c1 (stereo not shown) [Example 69, 6-(3-(2-hydroxybutyl)ureido)-2,3-dimethylquino-line-4-carboxamide] | > 10000 | ≤ 10000
CCC(O)CNC(=O)Nc1ccc2ncc(-c3ccccc3)c(C(N)=O)c2c1 (stereo not shown) [Example 71, 6-(3-(2-hydroxybutyl)ureido)-3-phenylquinoline-4-carboxamide] | > 10000 | ≤ 1000
CCC(O)CNC(=O)Nc1ccc2nc(C)c(-c3ccccc3F)c(C(N)=O)c2c1 (stereo not shown) [Example 73, 3-(2-fluorophenyl)-6-(3-(2-hydroxybutyl)ureido)-2-methylquinoline-4-carboxamide] | ≤ 1000 | < 100
CCC(O)CNC(=O)Nc1ccc2nc(C)cc(C(N)=O)c2c1 (stereo not shown) [Example 74, 6-(3-(2-hydroxybutyl)ureido)-2-methylquinoline-4-carboxamide] | > 10000 | ≤ 10000
CCC(CNC(=O)Nc1ccc2nc(C)c(-c3ccccc3)cc2c1)OC (stereo not shown) [Example 77, 1-(2-methoxybutyl)-3-(2-methyl-3-phenylquinolin-6-yl)urea] | ≤ 1000 | < 100
COCCNC(=O)Nc1ccc2nc(C)c(-c3ccccc3)cc2c1 [Example 78, 1-(2-methoxyethyl)-3-(2-methyl-3-phenylquinolin-6-yl)urea] | ≤ 1000 | ≤ 1000
CCC(O)CNC(=O)Nc1ccc2nc(C)c(-c3cccnc3)cc2c1 (stereo not shown) [Example 79, 1-(2-hydroxybutyl)-3-(2-methyl-3-(pyridin-3-yl)quinolin-6-yl)urea] | ≤ 1000 | < 100
CCC(O)CNC(=O)Nc1ccc2nc(C)c(-c3cnn(C)c3)cc2c1 (stereo not shown) [Example 82, 1-(2-hydroxybutyl)-3-(2-methyl-3-(1-methyl-1H-pyrazol-4-yl)quinolin-6-yl)urea] | > 10000 | ≤ 1000
CCC(O)CNC(=O)Nc1ccc2nc(C)c(-c3ccccc3)cc2c1Br (stereo not shown) [Example 87, 1-(5-bromo-2-methyl-3-phenylquinolin-6-yl)-3-(2-hydroxybutyl) urea] | < 100 | < 100
CCC(O)CNC(=O)Nc1ccc2nc(C(F)(F)F)c(-c3ccccc3)cc2c1 (stereo not shown) [Example 88, 1-(2-hydroxybutyl)-3-(3-phenyl-2-(trifluorometh-yl)quinolin-6-yl)urea] | > 10000 | ≤ 10000
CC[C@H](O)CNC(=O)Nc1ccc2nc(C)c(-c3ccccc3)cc2c1 [Example 89, (S)-1-(2-hydroxybutyl)-3-(2-methyl-3-phenylquinolin-6-yl)urea] | ≤ 1000 | ≤ 1000
CC[C@@H](O)CNC(=O)Nc1cc2cc(-c3ccccc3)c(-c3ccccc3)nc2cc1F [Example 90, (R)-1-(7-fluoro-2,3-diphenylquinolin-6-yl)-3-(2-hydroxybutyl) urea] | ≤ 1000 | ≤ 1000
CCC(O)CNC(=O)Nc1ccc2nc(-c3ccccc3)c(-c3ccccc3)c(N(C)C)c2c1 (stereo not shown) [Example 91, 1-(4-(dimethylamino)-2,3-diphenylquinolin-6-yl)-3-(2-hydroxybutyl) urea] | < 100 | < 100
CC[C@@H](O)CNC(=O)Nc1ccc2nc(-c3ccccc3)c(-c3ccccc3)c(NC(=O)C3CC3)c2c1 [Example 92, (R)-N-(6-(3-(2-hydroxybutyl)ureido)-2,3-diphenylquinolin-4-yl)cyclopropane-carboxamide] | < 100 | < 100
CCC(O)CNC(=O)Nc1ccc2nc(C)c(-c3ccccc3)c(NC(C)=O)c2c1 (stereo not shown) [Example 93, N-(6-(3-(2-hydroxybutyl)ureido)-2-methyl-3-phenylquinolin-4-yl)acetamide] | ≤ 1000 | < 100
CCC(O)CNC(=O)Nc1ccc2nc(-c3ccccc3)c(-c3ccccc3)c(NS(C)(=O)=O)c2c1 (stereo not shown) [Example 94, N-(6-(3-(2-Hydroxybutyl)ureido)-2,3-diphenylquinolin-4-yl)methanesulfonamide] | < 100 | < 100
CCC(O)CNC(=O)Nc1ccc2nc(-c3ccccc3)c(-c3ccccc3)c(N)c2c1 (stereo not shown) [Example 95, 1-(4-Amino-2,3-diphenylquinolin-6-yl)-3-(2-hydroxybutyl)urea] | < 100 | < 100

Continued, values first:

IC50 [1] [nM] | IC50 (human ACSS2) [nM] | Structure (SMILES)
< 100 | < 100 | CCC(O)CNC(=O)Nc1ccc2nc(-c3ccccc3)c(-c3ccccc3)c(C(=O)N(C)C)c2c1 (stereo not shown) [Example 63, 6-(3-(2-hydroxybutyl)ureido)-N,N-dimethyl-2,3-diphenylquino-line-4-carboxamide]
< 100 | < 100 | CCC(O)CNC(=O)Nc1ccc2nc(-c3ccccc3)c(-c3ccccc3)c(C(=O)NC3CC3)c2c1 (stereo not shown) [Example 64, N-cyclopropyl-6-(3-(2-hydroxybutyl)ureido)-2,3-diphenylquino-line-4-carboxamide]
< 100 | < 100 | CC[C@H](O)CNC(=O)Nc1ccc2nc(-c3ccccc3)c(-c3ccccc3F)cc2c1 [Example 67, (S)-1-(3-(2-fluorophenyl)-2-phenylquinolin-6-yl)-3-(2-hydroxybutyl) urea]
< 100 | < 100 | CCC(O)CNC(=O)Nc1ccc2nc(-c3ccccc3)c(-c3ccccc3)c(C#N)c2c1 (stereo not shown) [Example 70, 1-(4-cyano-2,3-diphenylquino-lin-6-yl)-3-(2-hydroxybutyl) urea]
< 100 | < 100 | CC[C@@H](O)CNC(=O)Nc1ccc2nc(C)c(-c3ccccc3)cc2c1 [Example 72, (R)-1-(2-Hydroxybutyl)-3-(2-methyl-3-phenylquinolin-6-yl)urea]
< 100 | < 100 | CCC(O)CNC(=O)Nc1ccc2nc(C)c(-c3ccccc3F)cc2c1 (stereo not shown) [Example 75, 1-(3-(2-fluorophenyl)-2-methylquinolin-6-yl)-3-(2-hydroxybutyl) urea]
< 100 | ≤ 1000 | CCCCNC(=O)Nc1ccc2nc(C)c(-c3ccccc3)cc2c1 [Example 76, 1-butyl-3-(2-methyl-3-phenylquinolin-6-yl)urea]
< 100 | < 100 | CCC(O)CNC(=O)Nc1ccc2nc(C)c(-c3ccccc3C)cc2c1 (stereo not shown) [Example 80, 1-(2-hydroxybutyl)-3-(2-methyl-3-(o-tolyl)quinolin-6-yl)urea]
< 100 | < 100 | CCC(O)CNC(=O)Nc1ccc2nc(C)c(-c3ccccc3Cl)cc2c1 (stereo not shown) [Example 81, 1-(3-(2-chlorophenyl)-2-methylquinolin-6-yl)-3-(2-hydroxybutyl) urea]
< 100 | < 100 | CC[C@@H](O)CNC(=O)Nc1ccc2nc(C)c(-c3ccccc3C)cc2c1 [Example 83, (R)-1-(2-hydroxybutyl)-3-(2-methyl-3-(o-tolyl)quinolin-6-yl)urea]
< 100 | < 100 | CCC(O)CNC(=O)Nc1ccc2nc(-c3ccccc3)c(-c3ccccc3)c(NC(C)=O)c2c1 (stereo not shown) [Example 84, N-(6-(3-(2-hydroxybutyl)ureido)-2,3-diphenylquinolin-4-yl)acetamide]
< 100 | < 100 | CCC(O)CNC(=O)Nc1ccc2nc(C)c(-c3ccccc3)cc2c1C (stereo not shown) [Example 85, 1-(2,5-dimethyl-3-phenylquinolin-6-yl)-3-(2-hydroxybutyl) urea]
< 100 | < 100 | CCC(O)CNC(=O)Nc1ccc2nc(C)c(-c3ccccc3)cc2c1C1CC1 (stereo not shown) [Example 86, 1-(5-cyclopropyl-2-methyl-3-phenylquinolin-6-yl)-3-(2-hydroxybutyl) urea]

Reference: patent publication US20220298115A1, “SMALL MOLECULE INHIBITORS OF ACETYL COENZYME A SYNTHETASE SHORT CHAIN 2 (ACSS2)” (Curadev Pharma Pvt. Ltd., priority 2019, published 2022)
